Measurements: US9119884B2, “LLP2A-bisphosphonate conjugates for osteoporosis treatment” (The Regents of the University of California, priority 2010, dated 2015)
“Also recorded” adds a separate entry of the source.

Key:
[1] = test system: bone marrow cells undergoing osteogenic differentiation; experiment: Rainbow bead cell-binding assay; format: cell-based, mouse; settings: cells cultured in osteogenic medium for 7 days, incubated with rainbow beads
Protocol: Mouse MSCs were purchased from Invitrogen (Cat#S1502-100), cultured in osteogenic medium for 7 days and incubated with rainbow beads for one hour. […] Original magnification 10× on the right and 20× on the left of the top panel.
A new color-encoding method that facilitates high-throughput screening of OBOC combinatorial libraries was developed. This method differs from the traditional methods used to monitor integrin expressions in the MSCs, i.e., the use of antibody-based fluorescence-activated cell sorting (FACS) or immunoblotting. In the present method, polymer beads displaying chemical compounds or families of compounds were stained with oil-based organic dyes that are used as coding tags. […] These rainbow beads were prepared in a multiplex manner such that each ligand reacted to one or a series of integrins that were coded one color, See FIG. 7 (Luo, J., et al., J Comb Chem, 2008, 10(4): p. 599-604). This rainbow bead technique was then applied to determine the integrin profile on the cell surfaces.
In FIG. 7, bone marrow cells were cultured in osteogenic medium for 7 days and incubated with rainbow beads. The purple beads that coded with LLP2A, the ligand with high affinity and specificity against α4β1, were covered with layers of cells identified by green arrows. […]

[2] = test system: 129SvJ mice; format: in vivo, mouse
[3] = test system: C57BL/6 mice; experiment: Guiding GFP-labeled mouse MSCs to bone; format: in vivo; settings: for osteocalcin levels: 0.9 nmol/mouse I.P. one hour after GFP-MSC I.V.
Protocol: LLP2A-Ale or LLP2A-Ale (1) were dissolved in 0.9% normal saline and injected I.P. to the mice one hour after MSC at a final solution of 0.9 nmol/mouse. Mice were sacrificed either at 3 days or 3 weeks. Osteocalcin, a bone formation marker, was measured at both 3 days and 3 weeks post-treatments. The lumbar vertebral bodies from the 3-day treatment groups were frozen and sectioned with cryostat. The sections were then stained with anti-GFP antibody. The transplanted MSCs were stained in brown.

SMILES: Cc1ccccc1NC(=O)Nc1ccc(CC(=O)N[C@@H](CCCCNC(=O)/C=C/c2cccnc2)C(=O)N[C@@H](CCCC(=O)O)C(=O)NC2(C(=O)NCCOCCOCCNC(=O)CCC(=O)NCCOCCOCCNC(=O)CCC(=O)N[C@@H](CCCCNC(=O)[C@H](N)CSC3CC(=O)N(CC4CCC(C(=O)NCCCC(O)(P(=O)(O)O)P(=O)(O)O)CC4)C3=O)C(N)=O)CCCCC2)cc1 (some centres unmarked) [LLP2A-Ale, LLP2A-Alendronate]
- cell binding to ligand-coded rainbow beads (affinity) [1]: high affinity
- dose-response at the cortical bone compartment ([2]; 10 ng vs 250 ng/mouse): no dose-responses
- mineral apposition rate ([2]; distal femur metaphysis): significant increases
- osteoblast surface ([2]; distal femur metaphysis): significant increases; also recorded: increased
- surface-based bone formation rate ([2]; distal femur metaphysis): significant increases
- trabecular thickness ([2]; distal femur microCT, four weeks, two dose levels, vs PBS): increased
- increase in cancellous bone mass from baseline ([2]; distal femur microCT, four weeks, LLP2A-Ale at higher dose level (250 ng)): ~20%
- bridges between adjacent trabeculae ([2]; mouse, in vivo): formed bridges between adjacent trabeculae
- early osteoblast maturation (P1NP levels) ([2]; serum): did not change
- osteoblast function (osteocalcin) ([2]; serum): increased
- cancellous bone mass ([2]; through increasing the thickness of the trabeculae): increases
- proliferating cell populations (BrdU) ([2]; two days after i.v. injection, lumbar vertebral sections): increased these proliferating cell populations adjacent to bone surface; also recorded: increases
- cancellous bone formation ([2]; young normal mice): increases
- cortical bone formation ([2]; young normal mice): increases
- location of transplanted MSCs (anti-GFP staining) ([3]; lumbar vertebral bodies, three days): observed within bone marrow and adjacent to the trabecular bone surfaces
- osteocalcin levels ([3]; three days): significantly increased
- osteocalcin levels ([3]; three weeks): significantly increased
